Molecules are shown by their SMILES. “And” between values parts separate entries of the source, which are not always exact repeats. Equal values may be shown once. Toxic doses and inconclusive results are not listed.

Consider 10 compounds from PubChem BioAssay AID190 (DTP/NCI, 2004).

This assay deals with AKR/Lw mice, AKR lymphoma ip, median survival T/C. Nature of the assay: NCI In Vivo Anticancer Drug Screen. Data for tumor model Lymphoma AKR (Transplanted) (intraperitoneal) in AKR/Lw mice. The note with it: endpoint: median survival time, higher = longer survival. On the procedure: The antitumor activity of compounds was measured in mice bearing transplantable tumors. Survival or tumor size were measured and the results are expressed as the measurement made in the treated group (T) divided by the measurement made in the vehicle treated control group (C). The tumor model used in this assay is Lymphoma AKR (Transplanted) (intraperitoneal) in AKR/Lw mice

[1] abbreviates: dose: 50.0 mg/kg/injection, schedule: Q01DX001 (ip), vehicle: saline.
Setting [2] is: dose: 100.0 mg/kg/injection, schedule: Q01DX001 (ip), vehicle: saline.
The mark [3] stands for this setting: dose: 200.0 mg/kg/injection, schedule: Q01DX001 (ip), vehicle: saline.
[4] abbreviates: dose: 400.0 mg/kg/injection, schedule: Q01DX001 (ip), vehicle: saline.
The mark [5] stands for this setting: dose: 100.0 mg/kg/injection, schedule: Q01DX001 (ip), vehicle: Klucel (hydroxypropylcellulose) (HPC).
The mark [6] stands for this setting: dose: 200.0 mg/kg/injection, schedule: Q01DX001 (ip), vehicle: Klucel (hydroxypropylcellulose) (HPC).

Take `C1CN1c1nc(N2CC2)nc(N2CC2)n1`: the T/C was 102 % of control (dose: 0.01 mg/kg/injection, schedule: Q04DX003 (ip), vehicle: saline); 115 % of control (dose: 0.02 mg/kg/injection, schedule: Q01DX009 (ip), vehicle: saline); 111 % of control (dose: 0.02 mg/kg/injection, schedule: Q04DX003 (ip), vehicle: saline); 109 % of control (dose: 0.03 mg/kg/injection, schedule: Q01DX009 (ip), vehicle: saline); 86 % of control and 102 % of control (dose: 0.03 mg/kg/injection, schedule: Q04DX003 (ip), vehicle: saline); 115 % of control (dose: 0.05 mg/kg/injection, schedule: Q01DX009 (ip), vehicle: saline). In addition, the T/C was 100 % of control (dose: 0.05 mg/kg/injection, schedule: Q04DX003 (ip), vehicle: saline); 101 % of control and 109 % of control (dose: 0.06 mg/kg/injection, schedule: Q01DX009 (ip), vehicle: saline); 93 % of control and 97 % of control and 107 % of control (dose: 0.06 mg/kg/injection, schedule: Q04DX003 (ip), vehicle: saline); 113 % of control (dose: 0.1 mg/kg/injection, schedule: Q04DX003 (ip), vehicle: saline); 106 % of control (dose: 0.12 mg/kg/injection, schedule: Q01DX001 (ip), vehicle: saline); 115 % of control and 122 % of control (dose: 0.2 mg/kg/injection, schedule: Q04DX003 (ip), vehicle: saline). Besides, the T/C runs as follows: (dose: 0.25 mg/kg/injection, schedule: Q01DX001 (ip), vehicle: saline) 106 % of control and 111 % of control; (dose: 0.3 mg/kg/injection, schedule: Q04DX003 (ip), vehicle: saline) 121 % of control; (dose: 0.35 mg/kg/injection, schedule: Q04DX003 (ip), vehicle: saline) 120 % of control; (dose: 0.37 mg/kg/injection, schedule: Q01DX001 (ip), vehicle: saline) 105 % of control; (dose: 0.6 mg/kg/injection, schedule: Q01DX009 (ip), vehicle: saline) 116 % of control; (dose: 0.75 mg/kg/injection, schedule: Q01DX001 (ip), vehicle: saline) 105 % of control and 115 % of control. Also, the T/C (dose: 0.8 mg/kg/injection, schedule: Q04DX003 (ip), vehicle: saline) is 188 % of control; the T/C (dose: 1.2 mg/kg/injection, schedule: Q01DX009 (ip), vehicle: saline) was 93 % of control; the T/C (dose: 1.5 mg/kg/injection, schedule: Q01DX001 (ip), vehicle: saline) is 123 % of control; the T/C (dose: 2.5 mg/kg/injection, schedule: Q01DX009 (ip), vehicle: saline) is 93 % of control; the T/C (dose: 15.0 micrograms/kg/injection, schedule: Q01DX009 (ip), vehicle: saline) is 113 % of control; the T/C (dose: 25.0 micrograms/kg/injection, schedule: Q01DX009 (ip), vehicle: saline) was 102 % of control. Further, the T/C is 115 % of control (dose: 30.0 micrograms/kg/injection, schedule: Q01DX009 (ip), vehicle: saline); 111 % of control (dose: 50.0 micrograms/kg/injection, schedule: Q01DX009 (ip), vehicle: saline); 116 % of control (dose: 100.0 micrograms/kg/injection, schedule: Q01DX009 (ip), vehicle: saline); 107 % of control (dose: 120.0 micrograms/kg/injection, schedule: Q01DX009 (ip), vehicle: saline); 105 % of control (dose: 250.0 micrograms/kg/injection, schedule: Q01DX009 (ip), vehicle: saline).

For the compound `C1CC[N+]2=C(C1)OCCC2`, the T/C was 94 % of control under setting [1], 91 % of control under setting [2] and 97 % of control under setting [3].

For the compound `c1ccc2c(c1)OCCOCCOc1ccccc1OCCOCCO2`, the T/C runs as follows: under setting [2], 107 % of control; under setting [3], 123 % of control; under setting [4], 103 % of control.

As to `COc1cc([C@@H]2c3cc4c(cc3C[C@H]3COC(=O)[C@@H]32)OCO4)cc(OC)c1OC`, the T/C (dose: 5.0 mg/kg/injection, schedule: Q01DX009 (ip), vehicle: Klucel (hydroxypropylcellulose) (HPC)) was 107 % of control.

With `CC(C)OC(=O)Oc1cccc2c1C(=O)c1ccccc1C2=O`, the T/C reads like this: under setting [5], 95 % of control; under setting [6], 91 % of control.

Consider `c1ccc(CC(Cc2ccccc2)=[N+]2CCCC2)cc1`, for which the T/C is, setting by setting: under setting [2], 97 % of control; under setting [3], 88 % of control; under setting [4], 88 % of control.

Take `O=[N+]([O-])O.[Th]`: the T/C is 113 % of control under setting [2], 109 % of control under setting [3] and 104 % of control under setting [4].

As to `Cc1c(C(=O)O)cc2n(c1=O)Cc1cc3ccccc3nc1-2`, the T/C under setting [1] was 102 % of control; the T/C (dose: 50.0 mg/kg/injection, schedule: Q04DX003 (ip), vehicle: saline with Tween-80) is 93 % of control; the T/C under setting [2] was 100 % of control; the T/C (dose: 100.0 mg/kg/injection, schedule: Q04DX003 (ip), vehicle: saline with Tween-80) is 100 % of control; the T/C under setting [3] was 94 % of control.

For the compound `OCC1C(CO)C2(Cl)C(Cl)=C(Cl)C1(Cl)C2(Cl)Cl` (configuration not stated), the T/C by setting is: under setting [5], 100 % of control; under setting [6], 93 % of control; (dose: 400.0 mg/kg/injection, schedule: Q01DX001 (ip), vehicle: Klucel (hydroxypropylcellulose) (HPC)) 91 % of control.

Take `NC(=O)C(Br)CBr` (configuration not stated): the T/C is, setting by setting: (dose: 25.0 mg/kg/injection, schedule: Q04DX003 (ip), vehicle: saline) 100 % of control; (dose: 50.0 mg/kg/injection, schedule: Q04DX003 (ip), vehicle: saline) 122 % of control; under setting [2], 108 % of control; (dose: 100.0 mg/kg/injection, schedule: Q04DX003 (ip), vehicle: saline) 89 % of control; under setting [3], 101 % of control.
